Measured values published in patent publication US7387779B2, “Anti-angiogenic proteins and fragments and methods of use thereof” (Beth Israel Deaconess Medical Center, priority 1998, dated 2008).

Experiments:
[1] = system: MDAMB-435 tumor xenografts; assay: MDAMB-435 human breast tumor xenograft (Example 59); format: in vivo, nude NCRNU mice; conditions: 3 weeks; for Final Tumor Weight (V/Vo) ± SEM: control 468.5 ± 48.06
Excerpt: (§1) For tests involving the MDAMB-435 model, female nude NCRNU mice, 5-6 weeks old, weighing approximately 20 grams, were implanted with 2×10^6 MDAMB-435 cells into the subaxillary mammary fat pad. For tests involving the PC3 model, male nude NCRNU mice, 5-6 weeks old, weighing approximately 25 g were implanted with 2×10^6 PC3 cells into the dorsal subcutis. When the tumors were 100 mm^3 (for the MDAMB-435 model), or 60 mm^3 (for the PC3 model), the animals were pair-matched into treatment and control groups.
(§2) Each group contained 6-7 tumored mice, each of which was ear-tagged and followed individually throughout the experiment. Initial doses of peptide or vehicle control were given on the day of pair-matching (Day 0), and were administered daily via intraperitoneal (i.p.) injection at doses indicated. Mice were weighed weekly, and tumor measurements were taken by calipers weekly, starting on Day 0. These tumor measurements were converted to tumor volume by a well-known formula, (V=W^2×L/2) and mean tumor volumes were plotted against time. Mice were euthenized at the end of the treatment period. Upon termination, the mice were weighed, sacrificed and their tumors were excised. The mean tumor weight per group was calculated, and the mean treated tumor volume/control tumor volume×100 was subtracted from 100% to give the tumor growth inhibition (TGI) for each group.

PC3 tumor xenografts [2] = assay: PC3 human prostate tumor xenograft (Example 59); format: in vivo, nude NCRNU mice; conditions: 3 weeks; for Final Tumor Weight (V/Vo) ± SEM: control 1070.0 ± 132.5
Excerpt: as §1, §2

PC3 tumor xenografts [3] = assay: PC3 human prostate tumor xenograft (Example 58); format: in vivo, nude NCRNU mice; conditions: 5.0 mg/kg i.p. daily, 3 weeks; for Final Tumor Weight (V/Vo) ± SEM: T7 vehicle 5.626 ± 0.38, T8 vehicle 6.278 ± 1.483
Protocol: Male nude NCRNU mice, 5-6 weeks old, weighing approximately 25 grams, 6 were implanted with 2×10^6 PC3 cells into the dorsal subcutis. When the tumors were 60 mm^3, the animals were pair-matched into treatment and control groups. Each group contained 6-7 tumored mice, each of which was ear-tagged and followed individually throughout the experiment. Initial doses of peptide or vehicle control were given on the day of pair-matching (Day 0), and were administered via intraperitoneal (i.p.) injection at doses indicated. Mice were weighed weekly, and tumor measurements were taken by calipers weekly. These tumor measurements were converted to tumor volume by a well-known formula, (V=W^2×L/2), and mean tumor volumes were plotted against time. Mice were euthenized at the end of the treatment period. Upon termination, the mice were weighed, sacrificed and their tumors were excised. The mean tumor weight per group was calculated, and the value of mean treated tumor volume or volume ratio/mean control tumor volume or volume ratio×100 was subtracted from 100% to give the tumor growth inhibition (TG1) for each group. All groups received injections I.P. daily, except for two T8-treated groups, which were treated twice per week and once a week, respectively.

C-PAE cells = assay: Endothelial cell proliferation, methylene blue staining; format: cell-based, bovine
Protocol: A methylene blue staining test was also done. 3,100 cells were added to each well and treated as above, and cells were then counted using the method of Oliver et al. (Oliver, M. H. et al., 1989, J. Cell. Science 92:513-18). All wells were washed one time with […] of 1×PBS and the cells were fixed by adding […] of 10% formalin in neutral-buffered saline (Sigma Chemical Co., St. Louis, Mo., USA) for 30 minutes at room temperature. After formalin removal cells were stained with a solution of 1% methylene blue (Sigma Chemical Co.) in 0.01 M borate buffer (pH 8.5) for 30 minutes at room temperature. After removal of staining solution, the wells were washed 5 times with […] of 0.01 M borate buffer (pH 8.5). Methylene blue was extracted from the cells with […] of 0.1N HCi/ethanol (1:1 mixture) for 1 hour at room temperature. The amount of methylene blue staining was measured on a microplate reader (BioRad, Hercules, Calif., USA) using light absorbance at 655 nm wavelength.
In the methylene-blue staining method, 7000 cells were plated into each well of a 96-well plate, and treated as described above. Cells were then counted using the method of Oliver et al. (1989, J. Cell. Sci. 92:513-8). After 48 hours of treatment, all wells were washed with 100 μl of PBS, and the cells fixed with 10% formalin in neutral-buffered saline (Sigma Chemical Co., St. Louis, Mo., USA). The cells were then stained with 1% methylene blue (Sigma) in 0.01M borate buffer, pH 8.5. Wells were washed with 0.01M borate buffer, and the methylene blue extracted from the cells with 0.1N HCl/ethanol, and the absorbance measured in a microplate reader (Bio-Rad, Hercules, Calif., USA) at 655 nm. Polymyxin B (Sigma) at a final concentration of 5 μg/ml was used to inactivate endotoxin (Liu, S. et al., 1997, Clin. Biochem. 30:455-63).
Proliferation of endothelial cells (C-PAE cells) and WM-164 melanoma cells was assayed by methylene blue staining, as described above in Examples 25 and 34. The results are shown in FIGS. 33A and 33B, which are a pair of graphs showing the effect of increasing concentration (x-axis) of Tumstatin, Tum-1, Tum-2, Tum-3 and Tum-4 on the relative number (y-axis) of C-PAE cells (FIG. 33A) and WM-164 cells (FIG. 33B). […] Tum-4, however, did have anti-proliferative activity in this cell line. […] Only Tum-4 inhibited WM-164 melanoma cells.
For the proliferation assay, Canstatin, Can-1 and Can-2 soluble proteins (0.1-20.0 μg/ml) were added to the growth medium of proliferating C-PAE cells, which were stimulated with 10% FBS in DMEM, in addition to 5 ng/ml bFGF and 3 ng/ml VEGF. The results are shown in FIG. 40, which is a graph showing the effect of increasing concentrations of Canstatin (♦), Can-1 (▪) and Can-2 (▴) (x-axis) on the relative cell number (y-axis) of C-PAE cells. Each concentration of each protein was tested in quadruplicate. Bovine serum albumin (BSA) was used as a control treatment. Polymyxin B was used to control for endotoxin interference, and no differences were found between assays run with and without polymyxin B added to the medium. Cells were allowed to proliferate for 48 hours, and were then fixed, stained and the density read with a Bio-Rad plate reader (Bio-Rad, Hercules, Calif., USA). Canstatin and Can-1 both caused dose-dependent decreases in the percent cell number, and both reduced the number of cells by 80% at concentrations of 5 μg/ml and higher.
An endothelial cell proliferation assay was used to compare the activity of Tumstatin and some of the deletion mutants. Recombinant Tumstatin (28 kDa), Tumstatin-44-131 (12 kDa) and T3 peptide were used in a methylene blue proliferation assay in equimolar concentrations.

Caspase-3 in C-PAE cells = assay: Caspase-3 assay; format: cell-based, bovine
Protocol: Tumstatin also altered cell morphology of C-PAE cells as monitored by phase contrast microscopy. After treating cells with 20 μg/ml of Tumstatin in the presence of 10% FCS for 24 hours on fibronectin-coated plates, the typical morphological features of apoptotic cells, membrane blebbing, cytoplasmic shrinkage, and chromatin condensation could be observed. […] Caspase-3 assay: Caspase-3 (CPP32) is an intracellular protease activated at the early stage of apoptosis, and initiates cellular breakdown by degrading structural and DNA repair proteins (Casciola-Rosen, L. et al., 1996, J. Exp. Med. 183:1957-64; Salvesen, G. S. et al., 1997, Cell 91:443-46). The protease activity of Caspase-3 was measured spectrophotometrically by detection of the chromophore (p-nitroanilide) cleaved from the labeled substrate (DEVD-pNA). C-PAE cells or PC-3 cells (0.5×10^6 per well) were plated onto a 6-well plate precoated with fibronectin (10 μg/ml) in DMEM supplemented with 10% FCS, and incubated overnight. The next day, the medium was replaced with DMEM containing 2% FCS and then incubated overnight at 37° C. Then cells were then stimulated with bFGF (3 ng/ml) in DMEM supplemented with 2% FCS, and also containing either TNF-α (80 ng/ml, positive control) or Tumstatin (10 μg/ml), and incubated for 24 hours. Controls received PBS buffer. After 24 hours, the supernatant cells were collected, and attached cells were trypsinized and combined with the supernatant cells. Cells were counted and resuspended in cell lysis buffer (Clontech) at a concentration of 4×10^7 cells/ml. The rest of the protocol followed the manufacturer's instructions (Clontech). A specific inhibitor of Caspase-3, DEVD-fmk (Asp-Glu-Val-Asp-fluoromethyl ketone) was used to confirm the specificity of the assay. The absorbance was measured in a microplate reader (Bio-Rad, Hercules, Calif., USA) at 405 nm. The assay was repeated three times for each cell type.
Apoptosis was also evaluated by measuring Caspase-3 activity as described in Example 27, above. The results are shown in FIG. 35, which is a histogram showing Caspase-3 activity as a measure of absorbance at OD405 (y-axis) of C-PAE cells treated (x-axis) with 5 μg/ml Tum-1, Tum-2, Tum-3 or Tum-4, or 80 ng/ml TNF-α or PBS buffer (control).
Caspase-3 activity was also assayed as described above. DEVD-fmk, a specific caspase-3 inhibitor, was used as an internal control to show specificity of Tumstatin-44-131. TNF-α (80 ng/ml) was used as a positive control. The experiments were repeated three times.
The protease activity of Caspase-3 in cells treated with T3 peptide was measured spectrophotometrically by detection of the chromophore (p-nitroanilide) cleaved from the labeled substrate (DEVD-pNA). […] In PC-3 nonendothelial cells, there was no difference in Caspase-3 activity between control treatments and T3 peptide-treated cells.

Molecule | % Tumor growth inhibition ([1]; 5.0 mg/kg i.p. daily) | Final Tumor Weight (V/Vo) ± SEM ([1]; 5.0 mg/kg i.p. daily) | Final Tumor Weight (V/Vo) ± SEM (PC3 tumor xenografts [2]; 5.0 mg/kg i.p. daily) | % Tumor growth inhibition (PC3 tumor xenografts [3]) [%] | Final Tumor Weight (V/Vo) ± SEM (PC3 tumor xenografts [3]) | Final Tumor Weight (V/Vo) ± SEM ([1]; 1.0 mg/kg i.p. daily) | % Tumor growth inhibition (PC3 tumor xenografts [2]; 1.0 mg/kg i.p. daily) [%] | Final Tumor Weight (V/Vo) ± SEM (PC3 tumor xenografts [2]; 1.0 mg/kg i.p. daily) | % Tumor growth inhibition (PC3 tumor xenografts [2]; 5.0 mg/kg i.p. daily) [%] | also measured
TFNCVKNYQRLDFTSRFVMDSCANFPN (Scrambled peptide SP2) [reference compound] | no tumor growth inhibition | 527.2 ± 57.89 | 931.0 ± 112.3 | 18.7 | 5.097 ± 0.185 | – | – | – | – | –
TMPFLFCNVNDVCNFASRNDYSYWL [T7] | – | – | – | 66.8 | 1.868 ± 0755 | – | – | – | – | EC50 (C-PAE cells; equimolar comparison, read-out: ED50, anti-proliferative effect): 1000 nM
KQRFTTMPFLFSNVNDVSNFASRNDYS (T8-3 (amino acids 68-94 of SEQ ID NO10; lysine has been substituted for the leucine residue at position 68 of the full-length Tumstatin molecule, and serine has been substituted for the cysteine residues at positions 79 and 85)) | 41.9% | 272.4 ± 34.86 | 691.5 ± 130.8 | – | – | 370.1 ± 68.17 | 28.5 | 765.1 ± 133.6 | 35.4 | –
CC(C)[C@H](NC(=O)[C@H](CCC(=O)O)NC(=O)[C@@H](N)CC(=O)O)C(=O)N[C@@H](CC(=O)O)C(=O)CF [DEVD-fmk, Asp-Glu-Val-Asp-fluoromethyl ketone, reference compound] | – | – | – | – | – | – | – | – | – | effect of specific Caspase-3 inhibitor on protease activity (Caspase-3 in C-PAE cells): decreased the protease activity to baseline
KQRFTTMPFLFDNVNDVDNFASRNDYS (P2 (amino acids 68-94 of SEQ ID NO10; lysine has been substituted for the leucine residue at position 68 of the full-length Tumstatin molecule, and aspartic acid has been substituted for the cysteine residues at positions 79 and 85)) | – | 380.5 ± 25.91 | 899.7 ± 60.25 | – | – | 344.7 ± 34.20 | 31.6 | 732.4 ± 85.96 | 15.9 | % Tumor growth inhibition ([1]; 1.0 mg/kg i.p. daily): 26.4%
Tum-3: residues 133 to 244 of Tumstatin (SEQ ID NO:24) (protein, Tum-3 (amino acids 133-244 of SEQ ID NO10)) AVHSQTTDIPPCPHGWISLWKGFSFIMFTSAGSEGTGQALASPGSCLEEFRASPFLECHGRGTCNYYSNSYSFWLASLNPERMFRKPIPSTVKAGELEKIISRCQVCMKKRH | – | – | – | – | – | – | – | – | – | inhibition of proliferation of C-PAE cells (C-PAE cells; 15 μg/ml): did not inhibit; Relative Cell No. (%) C-PAE (C-PAE cells; 20% FCS, 15 μg/ml recombinant protein): 94.9 ± 3.1%; effect on Caspase-3 activity (Caspase-3 in C-PAE cells; 5 μg/ml): did not
